# Data: US10196606B2, “Method of producing multipotent stem cells” (FLINDERS UNIVERSITY OF SOUTH AUSTRALIA, priority 2011, dated 2019)
# Assays:
# ALK4 = target: T1, ALK4 (Homo sapiens, UniProt P36896); conditions: cited from earlier work
# T1 sequence (P36896 24-505): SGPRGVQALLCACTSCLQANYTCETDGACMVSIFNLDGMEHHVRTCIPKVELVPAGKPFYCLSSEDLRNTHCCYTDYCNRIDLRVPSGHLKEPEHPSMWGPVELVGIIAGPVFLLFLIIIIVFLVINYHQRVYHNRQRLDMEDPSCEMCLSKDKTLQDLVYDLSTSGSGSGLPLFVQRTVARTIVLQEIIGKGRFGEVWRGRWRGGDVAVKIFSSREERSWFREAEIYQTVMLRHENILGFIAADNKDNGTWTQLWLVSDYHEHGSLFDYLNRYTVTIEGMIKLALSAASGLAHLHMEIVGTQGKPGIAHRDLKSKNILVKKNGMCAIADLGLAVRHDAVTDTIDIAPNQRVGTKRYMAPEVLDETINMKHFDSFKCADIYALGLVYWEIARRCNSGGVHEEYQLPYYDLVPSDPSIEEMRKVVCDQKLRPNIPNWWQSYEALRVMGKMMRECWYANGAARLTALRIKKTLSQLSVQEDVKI
# ALK1 = ALK1 (Homo sapiens, UniProt P37023); conditions: cited from earlier work
# ALK1, sequence (P37023 22-503, species assumed): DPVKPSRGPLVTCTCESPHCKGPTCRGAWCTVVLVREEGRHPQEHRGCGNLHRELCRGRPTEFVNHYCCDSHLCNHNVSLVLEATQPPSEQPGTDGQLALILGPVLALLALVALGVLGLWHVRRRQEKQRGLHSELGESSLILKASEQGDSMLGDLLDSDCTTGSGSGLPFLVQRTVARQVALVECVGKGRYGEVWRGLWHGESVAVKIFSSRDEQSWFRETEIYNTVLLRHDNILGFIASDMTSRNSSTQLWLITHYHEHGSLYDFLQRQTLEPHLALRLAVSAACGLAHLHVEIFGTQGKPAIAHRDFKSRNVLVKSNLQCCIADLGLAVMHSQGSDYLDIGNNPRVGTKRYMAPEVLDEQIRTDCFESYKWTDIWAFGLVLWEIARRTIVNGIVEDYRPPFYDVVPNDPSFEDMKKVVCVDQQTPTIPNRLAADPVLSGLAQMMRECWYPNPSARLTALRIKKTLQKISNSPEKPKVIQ
# ALK2 = target: T2, ALK2 (Homo sapiens, UniProt Q04771); conditions: cited from earlier work
# T2 sequence (Q04771 21-509): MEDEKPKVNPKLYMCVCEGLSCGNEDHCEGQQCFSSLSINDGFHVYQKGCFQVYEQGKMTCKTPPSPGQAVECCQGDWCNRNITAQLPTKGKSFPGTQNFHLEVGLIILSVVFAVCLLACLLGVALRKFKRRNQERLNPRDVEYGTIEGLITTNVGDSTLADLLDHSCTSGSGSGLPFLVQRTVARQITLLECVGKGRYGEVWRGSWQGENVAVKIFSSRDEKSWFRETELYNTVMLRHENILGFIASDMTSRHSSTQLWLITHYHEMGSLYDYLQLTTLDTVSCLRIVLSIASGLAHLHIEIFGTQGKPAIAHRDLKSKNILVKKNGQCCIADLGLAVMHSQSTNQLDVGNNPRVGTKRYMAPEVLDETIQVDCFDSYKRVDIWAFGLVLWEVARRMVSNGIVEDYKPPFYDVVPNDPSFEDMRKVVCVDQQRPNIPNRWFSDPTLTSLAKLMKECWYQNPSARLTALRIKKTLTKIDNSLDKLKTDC
# ALK3 = ALK3 (Homo sapiens, UniProt P36894); conditions: cited from earlier work
# ALK3, sequence (P36894 24-532): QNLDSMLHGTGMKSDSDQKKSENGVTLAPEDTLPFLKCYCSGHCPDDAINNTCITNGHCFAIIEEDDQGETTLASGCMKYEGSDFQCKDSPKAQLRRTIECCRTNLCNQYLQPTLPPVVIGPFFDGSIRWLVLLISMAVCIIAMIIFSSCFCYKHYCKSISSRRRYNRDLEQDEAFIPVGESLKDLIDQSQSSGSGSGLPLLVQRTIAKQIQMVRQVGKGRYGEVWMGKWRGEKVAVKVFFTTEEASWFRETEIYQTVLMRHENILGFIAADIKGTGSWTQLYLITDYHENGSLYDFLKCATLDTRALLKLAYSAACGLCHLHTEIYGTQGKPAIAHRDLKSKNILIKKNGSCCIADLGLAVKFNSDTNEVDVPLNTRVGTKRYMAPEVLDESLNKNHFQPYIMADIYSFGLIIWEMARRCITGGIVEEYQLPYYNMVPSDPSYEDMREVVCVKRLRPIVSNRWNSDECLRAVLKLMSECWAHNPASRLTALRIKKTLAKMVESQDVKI
# ALK6 = ALK6 (Homo sapiens, UniProt O00238); conditions: cited from earlier work
# ALK6, sequence (O00238 14-502): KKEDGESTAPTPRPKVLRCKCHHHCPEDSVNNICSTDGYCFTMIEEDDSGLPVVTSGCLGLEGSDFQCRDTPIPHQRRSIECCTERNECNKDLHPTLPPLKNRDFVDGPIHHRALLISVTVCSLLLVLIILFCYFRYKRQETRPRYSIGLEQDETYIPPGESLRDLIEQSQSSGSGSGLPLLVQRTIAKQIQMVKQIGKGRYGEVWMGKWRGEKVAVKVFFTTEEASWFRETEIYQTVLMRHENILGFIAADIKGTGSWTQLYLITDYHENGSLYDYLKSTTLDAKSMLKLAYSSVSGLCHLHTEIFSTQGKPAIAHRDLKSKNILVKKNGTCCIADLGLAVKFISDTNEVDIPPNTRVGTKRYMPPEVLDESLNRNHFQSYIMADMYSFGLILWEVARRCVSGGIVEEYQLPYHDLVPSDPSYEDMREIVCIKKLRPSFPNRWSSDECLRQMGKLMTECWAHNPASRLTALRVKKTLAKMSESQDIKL
# [1] = system: human umbilical cord fibroblast (HUCF) cells; assay: Induction of ALP positive colonies from HUCF, single induction cycle; format: cell-based; conditions: one induction cycle, 7 days in NSC media
# Procedure: At passage 17, HUCF cells were labelled with an anti-p75NTR antibody and underwent cell sorting for p75-NTR expression as described below, p75NTR-negative cells were used for all experiments of the induction by small molecules described below. Two hours before induction, p75-NTR^− HUCF were seeded at 1.4×10^5 per 35 mm tissue culture dishes coated with poly-D-lysine. On Day 1, the cells were induced in human induced pluripotent stem cell culture medium (HIPS) (DMEM/F12 supplemented with 25% KSR (Invitrogen), 1% non-essential amino acids (Invitrogen), 1% L-glutamine (Invitrogen), 50 units ml-1 penicillin, 50 μg ml-1 streptomycin, 10 ng ml-1 bFGF, and 0.1 mM β-mercaptoethanol (Invitrogen)) containing various combinations of small molecules as described below. The small molecules were used at the following concentrations: 0.5 μM PD0325901, 0.5 μM PD184352 (Millipore Merck), 72 nM U0216 (Millipore Merck), 0.4 μM RG108. […] 5-aza-2′-deoxycytidine (Millipore Merck) and 1 μM BIX01294. On day 2, the media was replaced with stem cell media (SCM) in the absence of small molecules as described in Example 1, except where indicated, the media was HIPS media in the absence of small molecules. On day 4, the cells were dissociated using 1 ml (1×) Tryple-E enzyme (Invitrogen) and seeded on 35 mm Petri dish with Neural Stem Cell (NSC) media (Neurobasal Medium (Invitrogen) supplemented with 10 ng/m bFGF and EGF with 50 units/ml penicillin, 50 μg/ml streptomycin). Colonies were maintained in NSC media for 7 days to induce neural stem cells unless stated otherwise.
# Cells were induced with a combination of small molecules as described above and stained with ALP as described in Example 1, and examined using phase contrast microscopy.
# [2] = system: mouse embryonic fibroblasts (MEF); assay: Induction of SMINS cells / ALP-positive neurospheres from MEF, 6 induction cycles; format: cell-based; conditions: withdrawal of individual small molecules from the combination
# Procedure: (§1) Mouse embryonic fibroblasts (MEF) and mouse adult tail-tip fibroblasts (TTF) were isolated from C57/BL6 mice as described previously^2. Both cell types (ie MEF and TTF) were cultured in MEF medium (Dulbecco's Modified Eagle Medium (DMEM; Invitrogen Corporation, Carlsbad, Calif., United States of America) containing 10% Fetal Bovine Serum (FBS; Thermo Fisher Scientific, Waltham, Mass., United. States of America), 50 units/ml penicillin and 50 μg/ml streptomycin (Invitrogen)). Native NS cells were cultured from mouse brain at E12-E14 as positive controls in neural stem (NS) cell media.
# (§2) 35 mm tissue culture dishes were coated with feeder cells (fibroblasts cultured from mouse embryo and seeded at 1.4×10^5 cells per 35 mm tissue culture dish) before induction. The MEF (passage 3) or TTF were seeded at 1.4×10^5 per 35 mm feeder cell-coated dish. The cells were induced in 6 cycles. […] The cells were then cultured in SCM in the absence of the small molecules for the next two days. Then, the cycle was repeated 5 times. Next, the cells were passaged and suspended in a drop of […] containing at least 50 cells for two days. Finally, the cells were cultured in the neural stem (NS) cell medium (DMEM/F12 (Invitrogen) supplemented with B-27 (1:50; Gibco Inc, Billings, Mont., United States of America), 50 units ml^−1 penicillin, 50 μg ml^−1 streptomycin, 8 mM HEPES buffer, 20 ng ml^−1 epidermal growth factor (EGF), 10 ng ml^−1 basic fibroblast growth factor (bFGF) for two weeks.
# (§3) ES culture medium (also referred to as SCM herein) was added to NS and SMINS cells overnight. Alkaline phosphatase staining was carried out according to the manufacturer's protocol (Hoffman-La Roche, Basel, Switzerland). For the immunofluorescence staining, cells were washed with phosphate buffered saline (PBS) and then fixed with 4% paraformaldehyde for 10 min. After washing twice with PBS, the cells were permeabilised with 0.1% Triton X-100 for 20 min. Cells were then washed twice and blocked in blocking buffer (a solution of PBS containing 1% FBS and 4% bovine serum albumin (BSA)) for 1 hour. […]
# [3] = system: mouse adult tail-tip fibroblasts (TTF); assay: Induction of SMINS cells / ALP-positive neurospheres from TTF; format: cell-based
# Procedure: as §1, §2, §3
# cell reprogramming = conditions: cited from earlier work
compound,measurement,setting,value
"Cc1cccc(-c2nn(C(=S)Nc3ccccc3)cc2-c2ccnc3ccccc23)n1 [A83-01, 3-(6-Methyl-2-pyridinyl)-N-phenyl-4-(4-quinolinyl)-1H-pyrazole-1-carbothioamide]",IC50,ALK4,12 nM
same,inhibition of ALK1,ALK1,only weakly inhibits
same,inhibition of ALK2,ALK2,only weakly inhibits
same,inhibition of ALK3,ALK3,only weakly inhibits
same,inhibition of ALK6,ALK6,only weakly inhibits
"O=C(NOCC1CC1)c1ccc(F)c(F)c1Nc1ccc(I)cc1Cl [PD184352, 2-(2-chloro-4-iodo-phenylamino)-N-cyclopropylmethoxy-3,4-difluoro-benzamide]",induction of ALP positive colonies from HUCF,[1],induced ALP positive colonies
"O=C(NOCC(O)CO)c1ccc(F)c(F)c1Nc1ccc(I)cc1F (stereo not shown) [PD325901, N-(2,3-dihydroxy-propoxy)-3,4-difluoro-2-(2-fluoro-4-iodo-phenylamino)-benzamide]",essential for generation of SMINS-MEF cells,[2],required for the induction
same,ALP-positive neurosphere produced from TTF,[3],Yes
same,induction of ALP positive colonies from HUCF,[1],induced ALP positive colonies
"O=C(O)[C@H](Cc1c[nH]c2ccccc12)N1C(=O)c2ccccc2C1=O [RG108, 1H-Indole-3-propanoic acid, α-(1,3-dihydro-1,3-dioxo-2H-isoindol-2-yl)-, (αS)—]",essential for generation of SMINS-MEF cells,[2],required for the induction
same,ALP-positive neurosphere produced from TTF,[3],No
N#CC(=C(/N)Sc1ccccc1N)/C(C#N)=C(/N)Sc1ccccc1N [U0216],induction of ALP positive colonies from HUCF,[1],induced ALP positive colonies
CCCC(CCC)C(=O)O [valproic acid],improvement of the efficiency of cell reprogramming by some induction processes,cell reprogramming,at least 100 fold
